Test results published in patent US20230203043A1, “NOVEL IMIDAZOPYRAZINE DERIVATIVES” (Hoffmann-La Roche Inc., priority 2020, published 2023).
Where a name gives a salt, the structure may show the parent alone.

tested on: Acinetobacter baumannii ATCC17961; assay: Antimicrobial susceptibility testing: 90% growth inhibitory concentration (IC90) determination in Iso-Sensitest broth, OD600 growth; format: cell-based; settings: Acinetobacter baumannii, ATCC17961, 16 h, read-out: A. baumannii ATCC 17961 IC90 (uM), strain ATCC 17961, OD600 growth over 16 h
Procedure, shortened: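 Growth inhibition is calculated during the logarithmic phase from OD600 readings taken every 20 minutes across 16 h at 35±2° C. Bacteria at ~5×10^(5) CFU/ml face twofold dilution series (e.g. 50 to 0.097 μM final).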

Structure (SMILES)	IC90 [µM]
Cc1cc(Nc2nccn3c(-c4cn(CC#N)nc4C(F)(F)F)cnc23)ccc1C(=O)NCC(=O)NC1CC(N)C1 (stereo not shown) [Example 749, N-[2-[(3-aminocyclobutyl)amino]-2-oxo-ethyl]-4-[[3-[1-(cyanomethyl)-3-(trifluoromethyl)pyrazol-4-yl]imidazo[1,2-a]pyrazin-8-yl]amino]-2-methyl-benzamide formate]	0.619
O=C(N[C@H]1CNC[C@@H]1O)N1CCN(C(=O)c2ccc(Nc3nccn4c(-c5c[nH]nc5C(F)(F)F)cnc34)cc2Cl)CC1 [Example 440, 4-[2-chloro-4-[[3-[3-(trifluoromethyl)-1H-pyrazol-4-yl]imidazo[1,2-a]pyrazin-8-yl]amino]benzoyl]-N-[(3S,4S)-4-hydroxypyrrolidin-3-yl]piperazine-1-carboxamide formate]	0.497
Cc1cc(Nc2nccn3c(-c4cn(C)nc4C(F)(F)F)cnc23)ccc1C(=O)N1CCN(C(=O)[C@H]2C[C@H](O)CN2)CC1 [Example 476, formic acid; [4-[(2R,4S)-4-hydroxypyrrolidine-2-carbonyl]piperazin-1-yl]-[2-methyl-4-[[3-[1-methyl-3-(trifluoromethyl)pyrazol-4-yl]imidazo[1,2-a]pyrazin-8-yl]amino]phenyl]methanone]	2.01
Cc1cc(Nc2nccn3c(-c4cn(CC#N)nc4C(F)(F)F)cnc23)ccc1C(=O)N[C@H](C)C(=O)NC1CC(N)C1 (stereo partly drawn) [Example 725, N-[(1R)-2[(3-aminocyclobutyl)amino]-1-methyl-2-oxo-ethyl]-4-[[3-[1-(cyanomethyl)-3-(trifluoromethyl)pyrazol-4-yl]imidazo[1,2-a]pyrazin-8-yl]amino]-2-methyl-benzamide formate]	0.462
CCc1cc(Nc2nccn3c(-c4cn(C5CCC5)nc4C(F)(F)F)cnc23)ccc1C(=O)NCCOCCCN [Example 609, N-(2-(3-aminopropoxy)ethyl)-4-((3-(1-cyclobutyl-3-(trifluoromethyl)-1H-pyrazol-4-yl)imidazo[1,2-a]pyrazin-8-yl)amino)-2-ethylbenzamide formate]	0.086
C[C@H](NC(=O)c1ccc(Nc2nccn3c(-c4c[nH]nc4C(F)(F)F)cnc23)cc1Cl)C(=O)N[C@H]1CCNC1 [Example 127, 2-chloro-N-[(2S)-1-oxo-1-[[(3S)-pyrrolidin-3-yl]amino]propan-2-yl]-4-[[3-[3-(trifluoromethyl)-1H-pyrazol-4-yl]imidazo[1,2-a]pyrazin-8-yl]amino]benzamide formate]	> 5
Cc1cc(Nc2nccn3c(-c4cn(C)nc4C(F)(F)F)cnc23)ccc1C(=O)NCCNC(=O)[C@@H]1C[C@@H](O)CN1 [Example 456, formic acid; (2S,4R)-4-hydroxy-N-[2-[[2-methyl-4-[[3-[1-methyl-3-(trifluoromethyl)pyrazol-4-yl]imidazo[1,2-a]pyrazin-8-yl]amino]benzoyl]amino]ethyl]pyrrolidine-2-carboxamide]	2.74
Cc1cc(Nc2nccn3c(-c4c[nH]nc4C(F)(F)F)cnc23)ccc1C(=O)N1CCN(C(=O)NCCN)CC1 [Example 428, N-(2-aminoethyl)-4-[2-methyl-4-[[3-[3-(trifluoromethyl)-1H-pyrazol-4-yl]imidazo[1,2-a]pyrazin-8-yl]amino]benzoyl]piperazine-1-carboxamide formate]	0.465

same assay, conditions: Acinetobacter baumannii, ATCC17961, 16 h, strain ATCC 17961, OD600 growth over 16 h, read-out: A. baumannii ATCC 17961 IC90

Structure (SMILES)	IC90 [µM]
Cc1cc(Nc2nccn3c(-c4cn(CC#N)nc4C(F)(F)F)cnc23)cc(F)c1C(=O)NCCOCCN [Example 75, N-[2-(2-aminoethoxy)ethyl]-4-[[3-[1-(cyanomethyl)-3-(trifluoromethyl)pyrazol-4-yl]imidazo[1,2-a]pyrazin-8-yl]amino]-2-fluoro-6-methylbenzamide]	1.7
Cc1cc(Nc2nccn3c(-c4cn(CCF)nc4C(F)(F)F)cnc23)ccc1C(=O)NCCOCCN [Example 253, N-[2-(2-aminoethoxy)ethyl]-4-[[3-[1-(2-fluoroethyl)-3-(trifluoromethyl)pyrazol-4-yl]imidazo[1,2-a]pyrazin-8-yl]amino]-2-methylbenzamide]	0.198
Cc1cc(Nc2nccn3c(-c4cn(CC#N)nc4C(F)(F)F)cnc23)cc(F)c1C(=O)N[C@H](C)CN [Example 719, (R)-N-(1-aminopropan-2-yl)-4-((3-(1-(cyanomethyl)-3-(trifluoromethyl)-1H-pyrazol-4-yl)imidazo[1,2-a]pyrazin-8-yl)amino)-2-fluoro-6-methylbenzamide]	0.435
CCc1cc(Nc2nccn3c(-c4cn(CC#N)nc4C(F)(F)F)cnc23)ccc1C(=O)NCCCCCCN [Example 227, N-(6-aminohexyl)-4-[[3-[1-(cyanomethyl)-3-(trifluoromethyl)pyrazol-4-yl]imidazo[1,2-a]pyrazin-8-yl]amino]-2-ethylbenzamide]	0.17
Cc1cc(Nc2nccn3c(-c4cn(CC#N)nc4C(F)(F)F)cnc23)ccc1C(=O)N[C@H](C)C(=O)N[C@@H]1CCNC1 [Example 746, 4-[[3-[1-(cyanomethyl)-3-(trifluoromethyl)pyrazol-4-yl]imidazo[1,2-a]pyrazin-8-yl]amino]-2-methyl-N-[(1R)-1-methyl-2-oxo-2-[[(3R)-pyrrolidin-3-yl]amino]ethyl] benzamide formate]	0.581
C#CCNC(=O)c1c(C)cc(Nc2nccn3c(-c4cn(Cc5nc(CC6CC6)no5)nc4C(F)(F)F)cnc23)cc1F [Example 38, 4-[[3-[1-[[3-(cyclopropylmethyl)-1,2,4-oxadiazol-5-yl]methyl]-3-(trifluoromethyl)pyrazol-4-yl]imidazo[1,2-a]pyrazin-8-yl]amino]-2-fluoro-6-methyl-N-prop-2-ynylbenzamide]	0.327
CCc1cc(Nc2nccn3c(-c4cn(CC(F)F)nc4C(F)(F)F)cnc23)ccc1C(=O)N1CCC(CN)CC1 [Example 58, [4-(aminomethyl)piperidin-1-yl]-[4-[[3-[1-(2,2-difluoroethyl)-3-(trifluoromethyl)pyrazol-4-yl]imidazo[1,2-a]pyrazin-8-yl]amino]-2-ethylphenyl] methanone]	0.209
CNC(=O)c1ccc(Nc2nccn3c(-c4cn(Cc5ccncn5)nc4C(F)(F)F)cnc23)cc1Cl [Example 281, 2-chloro-N-methyl-4-[[3-[1-(pyrimidin-4-ylmethyl)-3-(trifluoromethyl)pyrazol-4-yl]imidazo[1,2-a]pyrazin-8-yl]amino]benzamide]	0.345
CCc1cc(Nc2nccn3c(-c4cn(CCF)nc4C(F)(F)F)cnc23)ccc1C(=O)NCCOCCN1CCCC1 [Example 617, 2-ethyl-4-((3-(1-(2-fluoroethyl)-3-(trifluoromethyl)-1H-pyrazol-4-yl)imidazo[1,2-a]pyrazin-8-yl)amino)-N-(2-(2-(pyrrolidin-1-yl)ethoxy)ethyl) benzamide formate]	0.125
NC12CC(NC(=O)c3ccc(Nc4nccn5c(-c6c[nH]nc6C(F)(F)F)cnc45)cc3Cl)(C1)C2 [Example 105, N-(3-amino-1-bicyclo[1.1.1]pentanyl)-2-chloro-4-[[3-[3-(trifluoromethyl)-1H-pyrazol-4-yl]imidazo[1,2-a]pyrazin-8-yl]amino]benzamide]	1.56
CCc1cc(Nc2nccn3c(-c4cn(CC#N)nc4C(F)(F)F)cnc23)ccc1C(=O)NCC(=O)NCC1CCNCC1 [Example 524, 4-[[3-[1-(cyanomethyl)-3-(trifluoromethyl)pyrazol-4-yl]imidazo[1,2-a]pyrazin-8-yl]amino]-2-ethyl-N-[2-oxo-2-(4-piperidylmethylamino)ethyl] benzamide formate]	0.395
CCOCCCNC(=O)c1ccc(Nc2nccn3c(-c4c[nH]nc4C(F)(F)F)cnc23)cc1CC [Example 223, N-(3-ethoxypropyl)-2-ethyl-4-[[3-[3-(trifluoromethyl)-1H-pyrazol-4-yl]imidazo[1,2-a]pyrazin-8-yl]amino]benzamide]	1.12
CCc1cc(Nc2nccn3c(-c4cn(CC#N)nc4C(F)(F)F)cnc23)ccc1C(=O)NCCNC(=O)C1CCNCC1 [Example 486, N-(2-(4-((3-(1-(cyanomethyl)-3-(trifluoromethyl)-1H-pyrazol-4-yl)imidazo[1,2-a]pyrazin-8-yl)amino)-2-ethylbenzamido)ethyl)piperidine-4-carboxamide formate]	0.208
CCc1cc(Nc2nccn3c(-c4cn(CC(F)F)nc4C(F)F)cnc23)ccc1C(=O)NCCOCCN [Example 122, N-[2-(2-aminoethoxy)ethyl]-4-[[3-[1-(2,2-difluoroethyl)-3-(difluoromethyl)pyrazol-4-yl]imidazo[1,2-a]pyrazin-8-yl]amino]-2-ethylbenzamide]	0.208
CCc1cc(Nc2nccn3c(-c4cn(CC(O)C(F)(F)F)nc4C(F)(F)F)cnc23)ccc1C(=O)NCCOCCN (stereo not shown) [Example 644, N-(2-(2-aminoethoxy)ethyl)-2-ethyl-4-((3-(1-(3,3,3-trifluoro-2-hydroxypropyl)-3-(trifluoromethyl)-1H-pyrazol-4-yl)imidazo [1,2-a]pyrazin-8-yl)amino) benzamide]	0.24
O=C(c1ccc(Nc2nccn3c(-c4c[nH]nc4C(F)(F)F)cnc23)cc1Cl)N1CCN(C(=O)C2(O)CCCNC2)CC1 (stereo not shown) [Example 352, [2-chloro-4-[[3-[3-(trifluoromethyl)-1H-pyrazol-4-yl]imidazo[1,2-a]pyrazin-8-yl]amino]phenyl]-[4-(3-hydroxypiperidine-3-carbonyl)piperazin-1-yl]methanone]	0.229

same assay, conditions: strain ATCC 17961, OD600 growth over 16 h, read-out: A. baumannii ATCC 17961 IC90

Structure (SMILES)	IC90 [µM]
NC1CC(NC(=O)c2ccc(Nc3nccn4c(-c5c[nH]nc5C(F)(F)F)cnc34)cc2Cl)C1 (stereo not shown) [Example 384, N-(3-aminocyclobutyl)-2-chloro-4-[[3-[3-(trifluoromethyl)-1H-pyrazol-4-yl]imidazo[1,2-a]pyrazin-8-yl]amino]benzamide]	0.833
